Earlier results, collected in PMC6203792, “An IL13Rα2 peptide exhibits therapeutic activity against metastatic colorectal cancer” (British Journal of Cancer, 2018).

Molecular target: IL13Rα2
Details: read-out: affinity of IL-13/IL13Rα2 molecular recognition

Kd: ~500 pM
Substance: IL-13: Recombinant human IL-13
